Each structure is given as a SMILES string.

In this assay the target is T1, human CXCR3 (N-delta 4) (Homo sapiens, UniProt P49682).
T1 construct: CD8 leader; Flag tag; expressed in transfected cells; membranes used
T1 sequence (P49682 5-368 limits assumed): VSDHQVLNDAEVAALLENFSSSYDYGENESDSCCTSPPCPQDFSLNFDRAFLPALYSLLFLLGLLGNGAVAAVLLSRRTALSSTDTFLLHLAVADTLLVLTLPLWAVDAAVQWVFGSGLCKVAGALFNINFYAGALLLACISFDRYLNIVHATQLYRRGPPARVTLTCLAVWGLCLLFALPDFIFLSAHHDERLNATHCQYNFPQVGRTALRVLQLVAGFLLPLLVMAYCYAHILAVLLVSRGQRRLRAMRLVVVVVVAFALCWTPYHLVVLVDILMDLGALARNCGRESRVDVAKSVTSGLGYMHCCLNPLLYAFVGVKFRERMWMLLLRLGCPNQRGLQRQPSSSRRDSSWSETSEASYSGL
Description: Human CXCR3 (N-delta 4) scintillation proximity assay (SPA), [125I] IP-10 binding. The conditions noted are these: IC50 rating; Ba/F3-hCXCR3 (N-delta 4) membranes, 25 pM [125I] IP-10. The gist of the method:
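Membranes from mouse Ba/F3 pro-B cells stably expressing Flag-tagged human CXCR3 (N-delta 4) were coupled to SPA beads. IP-10 was added together with titrated compounds to start the reaction, and bound radioligand was read by scintillation proximity.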
In general terms: In a scintillation proximity assay essentially only radioactivity close to the scintillant gives light.
In turn, `CC[C@H]1CN(c2ncc(CN(C(=O)Nc3c(C)noc3C)C(=O)Nc3c(C)noc3C)cc2Cl)CCN1C1CCN(Cc2ccc(Cl)cc2F)CC1` [compound 445] returned an IC50 of more than 0.1 µM.

Compound `CC[C@H]1CN(c2ncc(C(C)(C)O)cc2Cl)CCN1C1CCN(Cc2ccc(Cl)cc2F)CC1` [compound 446] gave a half-inhibitory concentration (IC50) of more than 0.1 µM.

With `CC[C@H]1CN(c2ncc(C(=O)OC)cc2Cl)CCN1C1CCN(Cc2ccc(F)cc2C(F)(F)F)CC1` [compound 447], the IC50 was more than 0.1 µM.

Compound `CC[C@H]1CN(c2ncc(CO)cc2Cl)CCN1C1CCN(C(=O)c2ccccc2)CC1` [compound 448] yielded an IC50 of more than 0.1 µM.

In turn, `COC(=O)c1cnc(N2CCN(C3CCN(Cc4ccc(F)cc4)CC3)[C@@H](C)C2)c(Cl)c1` [compound 449] showed a half-maximal inhibitory concentration (IC50) of more than 0.1 µM.

The compound `CC[C@H]1CN(c2ncc(C(C)N)cc2Cl)CCN1C1CCN(Cc2ccc(Cl)cc2F)CC1` (stereo partly shown) [compound 450] yielded an IC50 of more than 0.1 µM.

On to `CC[C@H]1CN(c2ncc(C(C)OC(C)=O)cc2Cl)CCN1C1CCN(Cc2ccc(Cl)cc2F)CC1` (stereo partly shown) [compound 451], for which the IC50 was more than 0.1 µM.

Regarding `CC[C@H]1CN(c2ccc(CN)cn2)CCN1C1CCN(Cc2ccc(Cl)cc2)CC1` [compound 452], the IC50 was more than 0.1 µM.

In turn, `CCOC(CNC(=N)c1cnc(N2CCN(C3CCN(C(=O)c4ccc(Cl)cc4)CC3)[C@@H](CC)C2)c(Cl)c1)OCC` [compound 453] displayed an IC50 of more than 0.1 µM.

As for `CC[C@H]1CN(c2ncc(C(=O)OC)cc2Cl)CCN1C1CCN(C(=O)c2ccc(Br)cc2)CC1` [compound 454], the IC50 is more than 0.1 µM.

Regarding `CCC(=NOC)c1cnc(N2CCN(C3CCN(Cc4ccc(Cl)cc4F)CC3)[C@@H](CC)C2)c(Cl)c1` [compound 455], the concentration for half-maximal inhibition (IC50) is more than 0.1 µM.

Compound `COC(=O)c1ccc(N2C[C@H](C)N(C3CCN(Cc4ccc(Cl)cc4F)CC3)C[C@H]2C)nc1` [compound 456] had an IC50 of more than 0.1 µM.

The compound `CC[C@H]1CN(c2ncc(C(=O)OC)cc2Cl)CCN1C1CCN(C(=O)c2ccc(-n3cccc3)cc2)CC1` [compound 457] showed a half-maximal inhibitory concentration (IC50) of more than 0.1 µM.

Compound `CC[C@H]1CN(c2c(Cl)cc(C(=O)OC)c[n+]2[O-])CCN1C1CCN(Cc2ccc(Cl)cc2F)CC1` [compound 458] displayed an IC50 of 0.025 to 0.1 µM.

As for `CC[C@H]1CN(c2ncc(C(N)=O)cc2Cl)CCN1C1CCN(Cc2ccc(Cl)cc2N2CCOC2=O)CC1` [compound 460], the IC50 is 0.025 to 0.1 µM.

`CC[C@H]1CN(c2ncc(C(=O)NC3CC3)cc2C)CCN1C1CCN(C(=O)c2ccc(Cl)cc2)CC1` [compound 461] displayed an IC50 of less than 0.025 µM.

One may read the IC50 as the point on the concentration scale where inhibition reaches its midpoint. A high value points to weaker potency.
